Source: US10961200B2, “Small molecule inhibitors of lactate dehydrogenase and methods of use thereof” (THE UNITED STATES OF AMERICA, AS REPRESENTED BY THE …, priority 2014, dated 2021)
Read-outs that look alike come from different tables or passages of the source.

Molecular target: Human LDHA (Homo sapiens (Human), UniProt P00338)
Assay: human LDHA primary biochemical assay (resazurin/diaphorase coupled, fluorescence)
Text: Test compounds were placed in a Greiner Bio-One (Monroe, N.C.) 1536-well black solid bottom assay plate. 200 millimolar (mM) Tris HCl, pH 7.4, 100 micromolar […] EDTA and 0.01% TWEEN-20™, final concentration, was used as the assay buffer. The LDHA reagent was 2 nanomolar (nM) Human LDHA (Meridian Life Science, Inc., Memphis, Tenn.), final concentration, in assay buffer.

[1] = LDHA inhibitory activity, assay of Example 1, activity level classes
[2] = read-out: Inhibitory activity IC50

Row | IC50 [1] | IC50 [2] | SMILES
1 | > 57 µM |  | CC(C)C(=O)OCOC(=O)c1csc(-n2nc(-c3ccc(F)c(F)c3)cc2O)n1 [Compound 109, (isobutyryloxy)methyl 2-(3-(3,4-difluorophenyl)-5-hydroxy-1H-pyrazol-1-yl)thiazole-4-carboxylate]
2 | > 57 µM |  | O=C(O)c1csc(-n2nc(-c3ccc(F)c(S(=O)(=O)NCc4ccccc4)c3)cc2O)n1 [Compound 110, 2-(3-(3-(N-benzylsulfamoyl)-4-fluorophenyl)-5-hydroxy-1H-pyrazol-1-yl)thiazole-4-carboxylic acid]
3 | > 57 µM |  | O=C(O)c1csc(-n2nc(-c3ccc(NS(=O)(=O)C4CC4)c(F)c3)cc2O)n1 [Compound 111, 2-(3-(4-(cyclopropanesulfonamido)-3-fluorophenyl)-5-hydroxy-1H-pyrazol-1-yl)thiazole-4-carboxylic acid]
4 | > 57 µM |  | O=C(O)c1csc(-n2nc(-c3ccc(CCNS(=O)(=O)C4CC4)c(F)c3)cc2O)n1 [Compound 112, 2-(3-(4-(2-(cyclopropanesulfonamido)ethyl)-3-fluorophenyl)-5-hydroxy-1H-pyrazol-1-yl)thiazole-4-carboxylic acid]
5 | > 57 µM |  | CNS(=O)(=O)c1cc(-c2cc(O)n(-c3nc(C(=O)O)cs3)n2)ccc1F [Compound 114, 2-(3-(4-fluoro-3-(N-methylsulfamoyl)phenyl)-5-hydroxy-1H-pyrazol-1-yl)thiazole-4-carboxylic acid]
6 | > 57 µM |  | COC(=O)c1csc2c1c(=O)[nH]c1cc(-c3ccc(F)c(F)c3)nn12 [Compound 115, methyl 2-(3,4-difluorophenyl)-5-oxo-4,5-dihydropyrazolo[1,5-a]thieno[3,2-e]pyrimidine-6-carboxylate]
7 | > 57 µM |  | O=C(O)c1csc2c1c(=O)[nH]c1cc(-c3ccc(F)c(F)c3)nn12 [Compound 116, 2-(3,4-difluorophenyl)-5-oxo-4,5-dihydropyrazolo[1,5-a]thieno[3,2-e]pyrimidine-6-carboxylic acid]
8 | > 57 µM |  | CC(C)(C)OC(=O)c1csc(-n2nc(-c3ccc(F)c(F)c3)c(Cc3cccc(S(N)(=O)=O)c3)c2O)n1 [Compound 117, tert-butyl 2-(3-(3,4-difluorophenyl)-5-hydroxy-4-(3-sulfamoylbenzyl)-1H-pyrazol-1-yl)thiazole-4-carboxylate]
9 | > 57 µM |  | CC(C)(C)OC(=O)c1csc(-n2nc(-c3ccc(F)c(F)c3)c(-c3ccccc3)c2O)n1 [Compound 118, tert-butyl 2-(3-(3,4-difluorophenyl)-5-hydroxy-4-phenyl-1H-pyrazol-1-yl)thiazole-4-carboxylate]
10 | > 57 µM |  | O=C(O)c1csc(-n2nc(-c3ccc(F)c(F)c3)c3cccc(O)c32)n1 [Compound 119, 2-(3-(3,4-difluorophenyl)-7-hydroxy-1H-indazol-1-yl)thiazole-4-carboxylic acid]
11 | > 57 µM |  | CCOC(=O)c1csc(-n2nc(-c3ccc(F)c(F)c3)cc2O)n1 [Compound 121, ethyl 2-(3-(3,4-difluorophenyl)-5-hydroxy-1H-pyrazol-1-yl)thiazole-4-carboxylate]
12 | > 57 µM |  | CS(=O)(=O)NCCc1cc(-c2cc(O)n(-c3nc(C(=O)O)cs3)n2)ccc1F [Compound 122, 2-(3-(4-fluoro-3-(2-(methylsulfonamido)ethyl)phenyl)-5-hydroxy-1H-pyrazol-1-yl)thiazole-4-carboxylic acid]
13 |  | 1 to 57 µM | CCOC(=O)c1csc(-n2nc(-c3ccc(F)c(F)c3)c(Cc3ccc(S(N)(=O)=O)cc3)c2N)n1 [Compound 123, ethyl 2-(5-amino-3-(3,4-difluorophenyl)-4-(4-sulfamoylbenzyl)-1H-pyrazol-1-yl)thiazole-4-carboxylate]
14 | > 57 µM |  | O=C(O)c1csc(-n2cc(-c3ccc(F)c(F)c3)c3cccc(O)c32)n1 [Compound 125, 2-(3-(3,4-difluorophenyl)-7-hydroxy-1H-indol-1-yl)thiazole-4-carboxylic acid]
15 | > 57 µM |  | CC(=O)Nc1c(-c2ccccc2)nn(-c2nc(C(=O)O)cs2)c1O [Compound 126, 2-(4-acetamido-5-hydroxy-3-phenyl-1H-pyrazol-1-yl)thiazole-4-carboxylic acid]
16 | > 57 µM |  | NC(=O)c1csc(-n2nc(-c3ccccc3)c(Cc3ccc(S(N)(=O)=O)cc3)c2C(F)(F)F)n1 [Compound 127, 2-(3-phenyl-4-(4-sulfamoylbenzyl)-5-(trifluoromethyl)-1H-pyrazol-1-yl)thiazole-4-carboxamide]
17 | > 57 µM |  | Nc1c(Cc2ccc(S(N)(=O)=O)cc2)c(-c2ccccc2)nn1-c1ccc(=O)[nH]n1 [Compound 128, 4-((5-amino-1-(6-oxo-1,6-dihydropyridazin-3-yl)-3-phenyl-1H-pyrazol-4-yl)methyl)benzenesulfonamide]

Row | IC50 [1] | IC50 [2] | SMILES
18 | > 57 µM |  | CCOC(=O)c1cccc(-n2nc(-c3ccccc3)c(Cc3ccc(S(N)(=O)=O)cc3)c2N)c1 [Compound 129, ethyl 3-(5-amino-3-phenyl-4-(4-sulfamoylbenzyl)-1H-pyrazol-1-yl)benzoate]
19 | > 57 µM |  | Nc1c(Cc2ccc(S(N)(=O)=O)cc2)c(-c2ccccc2)nn1-c1cccc(C(=O)O)c1 [Compound 130, 3-(5-amino-3-phenyl-4-(4-sulfamoylbenzyl)-1H-pyrazol-1-yl)benzoic acid]
20 | > 57 µM |  | Nc1c(Cc2ccc(S(N)(=O)=O)cc2)c(-c2ccccc2)nn1-c1nc(CO)cs1 [Compound 131, 4-((5-amino-1-(4-(hydroxymethyl)thiazol-2-yl)-3-phenyl-1H-pyrazol-4-yl)methyl)benzenesulfonamide]
21 | > 57 µM |  | NS(=O)(=O)c1ccc(Cc2c(-c3ccccc3)nn(-c3nc(CO)cs3)c2Cc2nnn[nH]2)cc1 [Compound 132, 4-((5-((1H-tetrazol-5-yl)methyl)-1-(4-(hydroxymethyl)thiazol-2-yl)-3-phenyl-1H-pyrazol-4-yl)methyl)benzenesulfonamide]
22 | > 57 µM |  | COC(=O)c1csc(-n2nc(-c3ccccc3)c(Cc3ccc(S(N)(=O)=O)cc3)c2Cc2nnn[nH]2)n1 [Compound 133]
23 | > 57 µM |  | CCOC(=O)c1csc(-n2nc(-c3ccccc3)c(Cc3ccc(S(N)(=O)=O)cc3)c2Cc2nnn[nH]2)n1 [Compound 134, ethyl 2-(5-((1H-tetrazol-5-yl)methyl)-3-phenyl-4-(4-sulfamoylbenzyl)-1H-pyrazol-1-yl)thiazole-4-carboxylate]
24 | > 57 µM |  | CCOC(=O)c1csc(-n2nc(-c3ccccc3)c(Cc3ccc(S(N)(=O)=O)cc3)c2CC#N)n1 [Compound 135, ethyl 2-(5-(cyanomethyl)-3-phenyl-4-(4-sulfamoylbenzyl)-1H-pyrazol-1-yl)thiazole-4-carboxylate]
25 | > 57 µM |  | Nc1c(Cc2ccc(S(N)(=O)=O)cc2)c(-c2ccccc2)nn1-c1nc(C(F)(F)F)cs1 [Compound 137, 4-((5-amino-3-phenyl-1-(4-(trifluoromethyl)thiazol-2-yl)-1H-pyrazol-4-yl)methyl)benzenesulfonamide]
26 | > 57 µM |  | O=C(O)c1csc(-n2cc(CNS(=O)(=O)N3CCNCC3)c(-c3ccccc3)n2)n1 [Compound 138, 2-(3-phenyl-4-((piperazine-1-sulfonamido)methyl)-1H-pyrazol-1-yl)thiazole-4-carboxylic acid]
27 | > 57 µM |  | CCOC(=O)c1ccc(-n2nc(-c3ccccc3)c(Cc3ccc(S(N)(=O)=O)cc3)c2N)nn1 [Compound 140, ethyl 6-(5-amino-3-phenyl-4-(4-sulfamoylbenzyl)-1H-pyrazol-1-yl)pyridazine-3-carboxylate]
28 | > 57 µM |  | NS(=O)(=O)c1ccc(CNc2cn(-c3nc(C(=O)O)cs3)nc2-c2ccccc2)cc1 [Compound 142, 2-(3-phenyl-4-((4-sulfamoylbenzyl)amino)-1H-pyrazol-1-yl)thiazole-4-carboxylic acid]
29 | > 57 µM |  | Cn1ncc(C(=O)n2nc(-c3ccccc3)c(Cc3ccc(S(N)(=O)=O)cc3)c2N)c1N [Compound 143, 4-((5-amino-1-(5-amino-1-methyl-1H-pyrazole-4-carbonyl)-3-phenyl-1H-pyrazol-4-yl)methyl)benzenesulfonamide]
30 |  | 1 to 57 µM | Nc1c(Cc2ccc(S(N)(=O)=O)cc2)c(-c2ccccc2)nn1-c1cccc(C(=O)O)n1 [Compound 144, 6-(5-amino-3-phenyl-4-(4-sulfamoylbenzyl)-1H-pyrazol-1-yl)picolinic acid]
31 | > 57 µM |  | Nc1c(Cc2ccc(S(N)(=O)=O)cc2)c(-c2ccccc2)nn1-c1cc(C(=O)O)ccn1 [Compound 145, 2-(5-amino-3-phenyl-4-(4-sulfamoylbenzyl)-1H-pyrazol-1-yl)isonicotinic acid]
32 |  | 0.1 to 1 µM | Cc1oc(=O)oc1COC(=O)c1csc(-n2cc(Cc3ccc(S(N)(=O)=O)cc3)c(-c3ccccc3)n2)n1 [Compound 149, (5-methyl-2-oxo-1,3-dioxol-4-yl)methyl 2-(3-phenyl-4-(4-sulfamoylbenzyl)-1H-pyrazol-1-yl)thiazole-4-carboxylate]
33 | > 57 µM |  | Nc1c(Cc2ccc(S(N)(=O)=O)cc2)c(-c2ccccc2)nn1C(=O)c1cccc2cc[nH]c12 [Compound 150, 4-((5-ammo-1-(1H-indole-7-carbonyl)-3-phenyl-1H-pyrazol-4-yl)methyl)benzenesulfonamide]

Row | SMILES | IC50 [1] | IC50 [2]
34 | O=C(O)c1csc(-n2nc(-c3ccc(F)c(F)c3)c(Cc3ccccc3)c2O)n1 [Compound 113, 2-(4-benzyl-3-(3,4-difluorophenyl)-5-hydroxy-1H-pyrazol-1-yl)thiazole-4-carboxylic acid] | > 57 µM | 
35 | CNS(=O)(=O)c1ccc(Cc2c(-c3cccc(-c4ccccc4)c3)nn(-c3nc(C(=O)O)cs3)c2O)cc1 [Compound 124, 2-(3-([1,1′-biphenyl]-3-yl)-5-hydroxy-4-(4-(N-methylsulfamoyl)benzyl)-1H-pyrazol-1-yl)thiazole-4-carboxylic acid] | > 57 µM | 
36 | NS(=O)(=O)c1ccc(NCc2cn(-c3nc(C(=O)O)cs3)nc2-c2ccccc2)cc1 [Compound 139, 2-(3-phenyl-4-(((4-sulfamoylphenyl)amino)methyl)-1H-pyrazol-1-yl)thiazole-4-carboxylic acid] | > 57 µM | 
